Reference: ChEMBL document CHEMBL1147784, “Crystal structure of human ERK2 complexed with a pyrazolo[3,4-c]pyridazine derivative” (Bioorg Med Chem Lett, 2006)

biological target: Mitogen-activated protein kinase 1 (Homo sapiens, UniProt P28482); experiment: Inhibitory activity against human ERK2
Sequence (P28482 whole entry): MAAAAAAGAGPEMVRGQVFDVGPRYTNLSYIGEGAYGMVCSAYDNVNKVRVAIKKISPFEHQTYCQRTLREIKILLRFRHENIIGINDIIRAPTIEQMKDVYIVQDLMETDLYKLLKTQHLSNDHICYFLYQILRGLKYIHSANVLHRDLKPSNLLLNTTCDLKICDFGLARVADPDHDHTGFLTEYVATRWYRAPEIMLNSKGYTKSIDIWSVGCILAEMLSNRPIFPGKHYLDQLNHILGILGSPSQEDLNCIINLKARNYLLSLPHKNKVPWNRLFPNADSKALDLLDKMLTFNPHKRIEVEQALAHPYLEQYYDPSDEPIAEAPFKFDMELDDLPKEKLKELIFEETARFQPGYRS

IC50 [nM]	Compound
560	C=CCn1nc(N)c2cc(-c3c(-c4ccccc4)nn4ccccc34)nnc21
5100	Nc1nn(CCO)c2nnc(-c3c(-c4ccccc4)nn4ccccc34)cc12
1400	Cn1nc(N)c2cc(-c3c(-c4ccccc4)nn4ccccc34)nnc21
